Experimental findings from patent US9862688B2, “Hydrophobically tagged janus kinase inhibitors and uses thereof” (Dana-Farber Cancer Institute, Inc., priority 2014, dated 2018) are described below.

The subject of test [1] is Ba/F3 ABL. Nature of the test: Ba/F3 cell proliferation analysis (CellTiter-Glo), ABL. The class given is cell-based, murine. The following applies: Mus musculus, Ba/F3 cells, 72 hours at 37° C., cell viability. How it is done: (§1) Cell Proliferation Analysis
(§2) CellTiter-Glo® Luminescent cell viability assay (Promega) was used to assess cell survival following treatment with the compounds described herein. Cells were seeded into 384 well plates with the EL406 Combination Washer Dispenser (BioTek Instruments, Inc.), and the compounds were injected into the cells culture media with the JANUS Automated Workstation (PerkinElmer Inc.). Cells were treated with a series diluted inhibitors (20 to 0.04 μM) for 72 hours at 37° C. […] The cell lines employed include Ba/F3 (a murine interleukin-3 dependent pro-B cell line), NKL (a Natural Killer Cell Lymphoma (NKCL) cell line), CMK (an Acute Megakaryoblastic Leukemia (AMKL) cell line).
On the technique in general: Cellular ATP, detected with luciferase, serves as a proxy for viable cell number.

For test [2], the system named is Ba/F3 TYK2. The experiment in a line: Ba/F3 cell proliferation analysis (CellTiter-Glo), TYK2. The class given is cell-based, murine. As to conditions: Mus musculus, BaF3; Ba/F3 cells, 72 hours at 37° C., cell viability. The protocol: as §1
(§3) CellTiter-Glo® Luminescent cell viability assay (Promega) was used to assess cell survival following treatment with the compounds described herein. Cells were seeded into 384 well plates with the EL406 Combination Washer Dispenser (BioTek Instruments, Inc.), and the compounds were injected into the cells culture media with the JANUS Automated Workstation (PerkinElmer Inc.). Cells were treated with a series diluted inhibitors (20 to 0.04 μM) for 72 hours at 37° C. Luminescent measurement is performed using the 2104 Envision® Multilabel Reader (PerkinElmer Inc.). The cell lines employed include Ba/F3 (a murine interleukin-3 dependent pro-B cell line), NKL (a Natural Killer Cell Lymphoma (NKCL) cell line), CMK (an Acute Megakaryoblastic Leukemia (AMKL) cell line).

The test system of test [3] is Ba/F3 JAK3. Nature of the test: Ba/F3 cell proliferation analysis (CellTiter-Glo), JAK3. The class given is cell-based, murine. The following applies: Ba/F3 cells, 72 hours at 37° C., cell viability. The protocol: as §1, §3
Test [4] deals with JAK3 (Homo sapiens (Human), UniProt P52333). The experiment in a line: INVITROGEN Select Screening in vitro kinase activity assay. The format is biochemical. The following applies: enzymatic. An excerpt: The in vitro activity of the compounds described herein in inhibiting JAK3 and other kinases were obtained using an INVITROGEN Select Screening assay as known in the art.
Test [5] has as its system Ba/F3 JAK1. Nature of the test: Ba/F3 cell proliferation analysis (CellTiter-Glo), JAK1. The format is cell-based, murine. The following applies: Mus musculus, BaF3; Ba/F3 cells, 72 hours at 37° C., cell viability. The protocol: as §1, §3
Test [6] concerns Ba/F3 JAK2. Nature of the test: Ba/F3 cell proliferation analysis (CellTiter-Glo), JAK2. As to conditions: Mus musculus, BaF3; Ba/F3 cells, 72 hours at 37° C., cell viability. The class given is cell-based, murine. How it is done: as §1, §2
The subject of test [7] is CMK (an Acute Megakaryoblastic Leukemia (AMKL) cell line). Nature of the test: Cancer cell line proliferation analysis (CellTiter-Glo), CMK. The format is cell-based. As to conditions: Homo sapiens; CMK cells, 72 hours at 37° C., cell viability; read-out: Cancer cell lines IC50 (nM) CMK. The protocol: as §1, §3
Test [8] concerns NKL (a Natural Killer Cell Lymphoma (NKCL) cell line). The experiment in a line: Cancer cell line proliferation analysis (CellTiter-Glo), NKL. The class given is cell-based. The following applies: NKL cells, 72 hours at 37° C., cell viability, read-out: Cancer cell lines IC50 (nM) NKL. The protocol:
as §1, §3

Each structure is given as a SMILES string.

One may read the IC50 as the concentration at which inhibition is half-maximal.

JAK3, sequence (P52333 whole entry): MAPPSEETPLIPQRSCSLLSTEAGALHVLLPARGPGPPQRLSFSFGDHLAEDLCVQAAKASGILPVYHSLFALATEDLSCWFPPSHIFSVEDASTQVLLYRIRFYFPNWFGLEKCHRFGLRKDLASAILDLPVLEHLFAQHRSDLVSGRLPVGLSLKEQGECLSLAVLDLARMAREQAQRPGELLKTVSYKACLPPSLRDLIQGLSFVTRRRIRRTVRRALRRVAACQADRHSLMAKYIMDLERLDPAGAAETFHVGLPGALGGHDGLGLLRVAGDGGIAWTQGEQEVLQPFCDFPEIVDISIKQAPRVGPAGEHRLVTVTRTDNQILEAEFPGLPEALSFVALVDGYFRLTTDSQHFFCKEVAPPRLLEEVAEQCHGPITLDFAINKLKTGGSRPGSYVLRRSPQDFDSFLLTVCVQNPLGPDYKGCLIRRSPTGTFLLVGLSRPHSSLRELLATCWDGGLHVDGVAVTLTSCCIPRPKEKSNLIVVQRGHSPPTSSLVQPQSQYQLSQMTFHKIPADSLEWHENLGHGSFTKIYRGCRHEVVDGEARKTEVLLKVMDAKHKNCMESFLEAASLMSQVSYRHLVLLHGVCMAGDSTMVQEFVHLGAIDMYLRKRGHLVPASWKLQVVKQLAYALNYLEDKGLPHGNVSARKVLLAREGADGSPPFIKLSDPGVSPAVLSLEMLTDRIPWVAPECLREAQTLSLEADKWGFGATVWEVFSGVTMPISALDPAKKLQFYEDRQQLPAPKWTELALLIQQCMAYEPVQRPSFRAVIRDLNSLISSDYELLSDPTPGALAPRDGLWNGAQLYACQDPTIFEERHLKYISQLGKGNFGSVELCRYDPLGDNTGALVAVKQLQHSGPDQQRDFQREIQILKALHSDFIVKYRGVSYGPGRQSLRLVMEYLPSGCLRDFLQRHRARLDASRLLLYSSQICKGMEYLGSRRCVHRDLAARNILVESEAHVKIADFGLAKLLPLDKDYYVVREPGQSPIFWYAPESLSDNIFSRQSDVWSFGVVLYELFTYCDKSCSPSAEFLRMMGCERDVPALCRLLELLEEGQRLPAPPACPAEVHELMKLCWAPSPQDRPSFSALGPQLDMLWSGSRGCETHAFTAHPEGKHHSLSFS

With `C=CC(=O)Nc1cccc(CNc2nc(Nc3ccc(N4CCN(CCCNC(=O)CC5[C@H]6C[C@@H]7C[C@@H](C[C@H]5C7)C6)CC4)cc3)ncc2Cl)c1` (stereo partly shown) [Compound 3], the IC50 in test [1] (BaF3) was found to be 2260 nM; in test [2] it was 542 nM; in test [3] (Mus musculus, BaF3, 72 h), 72.7 nM; in test [4], 12.8 nM; in test [5], 1120 nM; in test [6], 1220 nM. In test [7], the IC50 is 490 nM.

Turning to `C=CC(=O)Nc1cccc(CNc2nc(Nc3ccc(N4CCN(CCCCNC(=O)CC5[C@H]6C[C@@H]7C[C@@H](C[C@H]5C7)C6)CC4)cc3)ncc2Cl)c1` (stereo partly shown) [Compound 4], the 50% inhibitory concentration (IC50) in test [1] (BaF3) turned out to be 623 nM; in test [2], 372 nM; in test [3] (Mus musculus, BaF3, 72 h), 64.8 nM; in test [4], 7.95 nM; in test [5] it was 252 nM; in test [7] it was 38 nM.

Regarding `C=CC(=O)Nc1cccc(CNc2nc(Nc3cnn(CCN4CCN(C(=O)CC5[C@H]6C[C@@H]7C[C@@H](C[C@H]5C7)C6)CC4)c3)ncc2Cl)c1` (stereo partly shown) [Compound 5], the IC50 in test [2] turned out to be 676 nM; in test [3] (Mus musculus, BaF3, 72 h), 94 nM; in test [4], 4.9 nM; in test [5], 1110 nM.

On to `C=CC(=O)Nc1cccc(CNc2nc(Nc3cnn(C4CCN(CCNC(=O)CC5[C@H]6C[C@@H]7C[C@@H](C[C@H]5C7)C6)CC4)c3)ncc2Cl)c1` (stereo partly shown) [Compound 7], for which the IC50 is 2280 nM in test [1] (BaF3); 794 nM in test [2]; 105 nM in test [3] (Mus musculus, BaF3, 72 h); 6.8 nM in test [4]; 954 nM in test [5]; 1440 nM in test [6].

On to `C=CC(=O)Nc1cccc(CNc2nc(Nc3ccc(N4CCN(CCCNC(=O)CC5[C@H]6C[C@@H]7C[C@@H](C[C@H]5C7)C6)CC4)cc3OC)ncc2Cl)c1` (stereo partly shown) [Compound 2], for which the IC50 amounted to 1820 nM in test [2]; 382 nM in test [3]; 45 nM in test [3] (listed as compound 2); 45 nM in test [4]; 273 nM in test [7]; 193 nM in test [8].

Consider `C=CC(=O)Nc1cccc(CNc2nc(Nc3cnn(C4CCN(C(=O)CC5[C@H]6C[C@@H]7C[C@@H](C[C@H]5C7)C6)CC4)c3)ncc2Cl)c1` (stereo partly shown) [Compound 6], for which the IC50 amounted to 3860 nM in test [1] (BaF3, 72 h, heading: Ba/F3 IC50 ABL); 38 nM in test [3] (Mus musculus, BaF3, 72 h); 5.9 nM in test [4]; 2080 nM in test [5]; 3180 nM in test [6].
